{"source": "patent US20190076461A1", "about": "“MATERIALS AND METHODS FOR TREATING HYPOXIC CONDITIONS” (MitoGenetics, LLC, priority 2016, published 2019)", "format_in_all_cases": "cell-based", "conditions_in_all_cases": "24 hour incubation, vs vehicle treated cells", "key": {"[1]": {"system": "MOCS2 (molybdenum cofactor synthesis 2)", "test": "DNA microarray of embryonic chicken liver cells incubated with selenomethionine: MOCS2 expression", "procedure": "(§1) Embryonic chicken kidney and liver cells were obtained from Charles River Laboratories, Inc. Cells were cultured in 75 cc flasks. Each flask represented a treatment group as follows: Control, 1 nM selenomethionine. Treatments consisted of 24 hour incubations with selenomethionine. After that period, samples were processed for microarray analysis. Experiments were performed in triplicate. DNA microarray analyses were performed using a system provided by Agilent. Arrays included four arrays per chip (Agilent 4×44K chip). Total RNA was reverse transcribed (1000 ng) using T7 primers and labeled and transcribed using Cyanine-3 dye. Each array was hybridized with at least 1.65 μg of labeled cRNA at 65° C. for 18 hours. Arrays were scanned using an Agilent array scanner. The microarray platform can determine a minimum of a 1.5 fold change in gene expression. Fold changes between homozygous ZDF rats fed potosaccharide for 28 days vs homozygous ZDF rats fed an equivalent amount of vehicle (control) were examined. In addition, gene expression was measured in heterozygous ZDF (lean rats) fed with vehicle only and compared to gene expression in homozygous ZDF control rats. Fold changes were used to calculate a percent restoration by using the fold changes between homozygous ZDF rats fed potosaccharide and lean control rats."}, "[2]": {"system": "COX7A2 (cytochrome c oxidase subunit VIIa polypeptide 2)", "test": "DNA microarray of embryonic chicken liver cells incubated with selenomethionine: COX7A2 expression", "procedure": "as §1"}, "[3]": {"system": "COX8A (cytochrome c oxidase subunit VIIIA)", "test": "DNA microarray of embryonic chicken liver cells incubated with selenomethionine: COX8A expression", "procedure": "as §1"}, "[4]": {"system": "COX10 (COX10 homolog, cytochrome c oxidase assembly protein, heme A: farnesyltransferase)", "test": "DNA microarray of embryonic chicken liver cells incubated with selenomethionine: COX10 expression", "procedure": "as §1"}, "[5]": {"system": "COX19 (COX19 cytochrome c oxidase assembly homolog)", "test": "DNA microarray of embryonic chicken liver cells incubated with selenomethionine: COX19 expression", "procedure": "as §1"}, "[6]": {"system": "ATOX1 (ATX1 antioxidant protein 1 homolog)", "test": "DNA microarray of embryonic chicken liver cells incubated with selenomethionine: ATOX1 expression", "procedure": "as §1"}}}
{"smiles": "C[Se]CC[C@H](N)C(=O)O", "note": "[selenomethione, L-selenomethionine]", "values": [{"measurement": "Fold Change (1 nM Se vs Control), MOCS2", "setting": "[1]", "result": 2.2, "unit": "fold"}, {"measurement": "Fold Change (1 nM Se vs Control), COX7A2", "setting": "[2]", "result": 2.2, "unit": "fold"}, {"measurement": "Fold Change (1 nM Se vs Control), COX8A", "setting": "[3]", "result": 1.5, "unit": "fold"}, {"measurement": "Fold Change (1 nM Se vs Control), COX10", "setting": "[4]", "result": 1.4, "unit": "fold"}, {"measurement": "Fold Change (1 nM Se vs Control), COX19", "setting": "[5]", "result": 1.3, "unit": "fold"}, {"measurement": "Fold Change (1 nM Se vs Control), ATOX1", "setting": "[6]", "result": 1.4, "unit": "fold"}]}
